This passage reports IC50 and solubility results from patent publication US20240058422A1, “GLUCAGON-LIKE PEPTIDE-1 RECEPTOR ANTAGONISTS” (INDIANA UNIVERSITY RESEARCH AND TECHNOLOGY CORPORATION, priority 2022, published 2024).

Data set [1] deals with GLP-1R (Homo sapiens, UniProt P43220). Put plainly: GLP-1 receptor-mediated cAMP induction, luciferase reporter gene antagonism assay. The class given is cell-based. Further details: host or cells: HEK 293. The following applies: antagonism of 0.05 nM GLP-1, HEK 293 cells. As for the experimental part: GLP-1 Receptor-Mediated cAMP Induction The ability of peptides to stimulate or block cAMP induction at the GLP-1 receptor was examined by a luciferase-based reporter gene assay. Cotransfection of HEK 293 cells with the human GLP-1 receptor (Open Biosystems) and a cAMPinducible (cAMPresponsive element) luciferase gene constituted the cellular construct where receptor activation could be measured. Bioassays were performed by first serum depriving the cells for 16 h in 0.25% bovine growth serum (HyClone)-supplemented Dulbecco's modified Eagle's medium (Invitrogen) and then adding serial dilutions of the peptides over the appropriate concentration ranges in 96-well poly-D-lysine-coated plates (BD Biosciences). For antagonism assays, a constant concentration of GLP-1 (0.05 nM) was added to the assay plate after the diluted peptides. Incubation continued for 5 h at 37° C., 5% CO2 and was followed by the addition of an equivalent volume (100 μL) of LucLite luminescence substrate reagent (Perkin-Elmer). MicroBeta 1450 liquid scintillation counting (Perkin-Elmer) quantified the luminescence signal in counts per second (cps) after shaking the plate at 600 rpm for 3 min. Data was plotted using Origin software (OriginLab) and the effective concentration 50 (EC50) or inhibitory concentration 50 (IC50) was determined by sigmoidal fitting. Potency was determined by comparative analysis of relative EC50 or IC50 values. Each experiment was repeated at least three times with each sample assayed in duplicate.
Sequence of GLP-1R (P43220 24-463): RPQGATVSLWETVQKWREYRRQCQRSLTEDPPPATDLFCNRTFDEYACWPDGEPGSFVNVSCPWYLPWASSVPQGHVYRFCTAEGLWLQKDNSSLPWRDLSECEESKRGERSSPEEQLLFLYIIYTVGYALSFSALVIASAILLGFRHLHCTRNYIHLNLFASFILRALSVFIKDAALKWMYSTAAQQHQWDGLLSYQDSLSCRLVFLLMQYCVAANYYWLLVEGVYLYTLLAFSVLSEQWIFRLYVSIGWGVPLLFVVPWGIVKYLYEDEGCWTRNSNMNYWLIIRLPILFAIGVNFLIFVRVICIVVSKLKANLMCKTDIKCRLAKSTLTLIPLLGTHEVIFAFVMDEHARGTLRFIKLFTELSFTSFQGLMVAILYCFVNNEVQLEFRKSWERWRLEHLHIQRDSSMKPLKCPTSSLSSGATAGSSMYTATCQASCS
On the technique in general: A reporter such as luciferase makes a cellular process visible.

Data set [2] can be described thus: Solubility in buffer.
[3] abbreviates: Table 2, C16 linker variants of 9-40amide Jant4 K40[X], read-out: Biactivity IC50.
Setting [4] is: 80 mM ammonium bicarbonate buffer, pH 7.7, Solubility [mg/mL] 80 mM AmBicarb pH7.7, Table 2, 80 mM AmBicarb pH7.7.
[5] abbreviates: 80 mM ammonium bicarbonate buffer, pH 7.7.

Molecules are shown by their SMILES. Values after ≈ are worked out from the molar mass of the structure shown. Like-named read-outs stand apart in the source and are kept apart here. Starred links: 1 amine or outer side, 2 acyl side, 3 side chain; linkers in the order of their positions; H or OH if unused. Non-standard residues stand in square brackets, D forms with d. Residues, ends and D or L forms follow the SMILES beside them. Groups on a side chain read outwards from the residue. *: point of attachment. C18 diacid = O=C(O)CCCCCCCCCCCCCCCCC(=O)*; γGlu = O=C(O)[C@H](CCC(=O)[*:2])N[*:1]; Palmitoyl = CCCCCCCCCCCCCCCC(=O)*; AEEA = NCCOCCOCC(=O)O; Aib = CC(C)(N)C(=O)O

In the case of `CCCCCCCCCCCCCCCC(=O)N[C@@H](CCC(=O)NCCOCCOCC(=O)N[C@@H](CCC(=O)NCCOCCOCC(=O)NCCCC[C@H](NC(=O)[C@H](CO)NC(=O)[C@@H]1CCCN1C(=O)[C@@H]1CCCN1C(=O)[C@@H]1CCCN1C(=O)[C@H](C)NC(=O)CNC(=O)[C@H](CO)NC(=O)[C@H](CO)NC(=O)[C@@H]1CCCN1C(=O)CNC(=O)CNC(=O)[C@H](CCCCN)NC(=O)[C@@H](NC(=O)[C@H](CC(C)C)NC(=O)[C@H](Cc1c[nH]c2ccccc12)NC(=O)[C@H](C)NC(=O)[C@@H](NC(=O)[C@H](Cc1ccccc1)NC(=O)[C@H](CCC(=O)O)NC(=O)[C@H](CCCNC(=N)N)NC(=O)[C@@H](NC(=O)[C@H](C)NC(=O)[C@H](CCC(N)=O)NC(=O)[C@H](CCC(=O)O)NC(=O)[C@H](CCC(=O)O)NC(=O)[C@H](CC(C)C)NC(=O)[C@H](Cc1ccc(O)cc1)NC(=O)[C@H](CO)NC(=O)[C@H](CO)NC(=O)[C@@H](NC(=O)[C@@H](N)CC(=O)O)C(C)C)C(C)C)[C@@H](C)CC)C(C)C)C(N)=O)C(=O)O)C(=O)O` [compound 59] (H-DVSSYLEEQAVREFIAWLVKGGPSSGAPPPSK([AEEA-γGlu-AEEA-γGlu-Palmitoyl])-NH2; N-terminus assumed), the IC50 in data set [1] (setting [3]) is 11 nM. Besides, the solubility in data set [2] (setting [4]) is over 25000 µg/mL.

Consider `CCCCCCCCCCCCCCCC(=O)NCCCC[C@H](NC(=O)[C@H](CO)NC(=O)[C@@H]1CCCN1C(=O)[C@@H]1CCCN1C(=O)[C@@H]1CCCN1C(=O)[C@H](C)NC(=O)CNC(=O)[C@H](CO)NC(=O)[C@H](CO)NC(=O)[C@@H]1CCCN1C(=O)CNC(=O)CNC(=O)[C@H](CCCNC(=N)N)NC(=O)[C@@H](NC(=O)[C@H](CC(C)C)NC(=O)[C@H](Cc1c[nH]c2ccccc12)NC(=O)[C@H](CCC(=O)O)NC(=O)[C@@H](NC(=O)[C@H](Cc1ccccc1)NC(=O)[C@H](CCC(=O)O)NC(=O)[C@H](CCCNC(=N)N)NC(=O)[C@@H](NC(=O)[C@H](C)NC(=O)[C@H](CCC(=O)O)NC(=O)[C@H](CCC(=O)O)NC(=O)[C@H](CCC(=O)O)NC(=O)[C@H](CC(C)C)NC(=O)[C@H](Cc1ccc(O)cc1)NC(=O)[C@H](CO)NC(=O)[C@H](CO)NC(=O)[C@@H](NC(=O)[C@@H](N)CC(=O)O)C(C)C)C(C)C)[C@@H](C)CC)C(C)C)C(N)=O` [compound 72] (H-DVSSYLEEEAVREFIEWLVRGGPSSGAPPPSK(Palmitoyl)-NH2; N-terminus assumed), for which the IC50 in data set [1] (Table 3, amino acid substitution variants of Jant4-K40, read-out: Bioactivity IC50) was determined as 19 nM. This molecule also registered a solubility in data set [2] (setting [5]) of over 20000 µg/mL.

For the molecule `CC[C@H](C)[C@H](NC(=O)[C@H](Cc1ccccc1)NC(=O)[C@H](CCC(=O)O)NC(=O)[C@H](CCCNC(=N)N)NC(=O)[C@@H](NC(=O)[C@H](C)NC(=O)[C@H](CCC(N)=O)NC(=O)[C@H](CCC(=O)O)NC(=O)[C@H](CCC(=O)O)NC(=O)[C@H](CC(C)C)NC(=O)[C@H](Cc1ccc(O)cc1)NC(=O)[C@H](CO)NC(=O)[C@H](CO)NC(=O)[C@@H](NC(=O)[C@@H](N)CC(=O)O)C(C)C)C(C)C)C(=O)N[C@@H](C)C(=O)N[C@@H](Cc1c[nH]c2ccccc12)C(=O)N[C@@H](CC(C)C)C(=O)N[C@H](C(=O)N[C@@H](CCCCN)C(=O)NCC(=O)NCC(=O)N1CCC[C@H]1C(=O)N[C@@H](CO)C(=O)N[C@@H](CO)C(=O)NCC(=O)N[C@@H](C)C(=O)N1CCC[C@H]1C(=O)N1CCC[C@H]1C(=O)N1CCC[C@H]1C(=O)N[C@@H](CO)C(=O)N[C@@H](CCCCNC(=O)CC[C@H](NC(=O)CC[C@H](NC(=O)CCCCCCCCCCCCCCCCC(=O)O)C(=O)O)C(=O)O)C(N)=O)C(C)C` [compound 64] (H-DVSSYLEEQAVREFIAWLVKGGPSSGAPPPSK([γGlu-γGlu-C18 diacid])-NH2; N-terminus assumed), the IC50 in data set [1] (setting [3]) came out at 841 nM. This molecule came in with a solubility in data set [2] (setting [4]) of over 25000 µg/mL.

Turning to `CCCCCCCCCCCCCCCC(=O)NCCCC[C@H](NC(=O)[C@H](CO)NC(=O)[C@@H]1CCCN1C(=O)[C@@H]1CCCN1C(=O)[C@@H]1CCCN1C(=O)[C@H](C)NC(=O)CNC(=O)[C@H](CO)NC(=O)[C@H](CO)NC(=O)[C@@H]1CCCN1C(=O)CNC(=O)CNC(=O)[C@H](CCCCN)NC(=O)[C@@H](NC(=O)[C@H](CC(C)C)NC(=O)[C@H](Cc1c[nH]c2ccccc12)NC(=O)[C@H](C)NC(=O)[C@@H](NC(=O)[C@H](Cc1ccccc1)NC(=O)[C@H](CCC(=O)O)NC(=O)[C@H](CCCNC(=N)N)NC(=O)[C@@H](NC(=O)[C@H](C)NC(=O)[C@H](CCC(N)=O)NC(=O)C(C)(C)NC(=O)[C@H](CCC(=O)O)NC(=O)[C@H](CC(C)C)NC(=O)[C@H](Cc1ccc(O)cc1)NC(=O)[C@H](CO)NC(=O)[C@H](CO)NC(=O)[C@@H](NC(=O)[C@@H](N)CC(=O)O)C(C)C)C(C)C)[C@@H](C)CC)C(C)C)C(N)=O` [compound 84] (H-DVSSYLE[Aib]QAVREFIAWLVKGGPSSGAPPPSK(Palmitoyl)-NH2), the IC50 in data set [1] (Table 4, Aib variants of 9-40am Jant4 K40[C16], read-out: Bioactivity IC50) was 30 nM. The solubility came out at 5200 µg/mL (≈ 1450 µM) in data set [2] (setting [5]) and 200 µg/mL (≈ 55.6 µM) in data set [2] (PBS, pH 7.7, Solubility [mg/mL] PBS pH7.7, Table 4, PBS pH7.7).

Take `CCCCCCCCCCCCCCCC(=O)NCCCC[C@H](NC(=O)[C@H](CO)NC(=O)[C@@H]1CCCN1C(=O)[C@@H]1CCCN1C(=O)[C@@H]1CCCN1C(=O)[C@H](C)NC(=O)CNC(=O)[C@H](CO)NC(=O)[C@H](CO)NC(=O)[C@@H]1CCCN1C(=O)CNC(=O)CNC(=O)[C@H](CCCCN)NC(=O)[C@@H](NC(=O)[C@H](CC(C)C)NC(=O)[C@H](Cc1c[nH]c2ccccc12)NC(=O)[C@H](C)NC(=O)[C@@H](NC(=O)[C@H](Cc1ccccc1)NC(=O)[C@H](CCC(=O)O)NC(=O)[C@H](CCCNC(=N)N)NC(=O)[C@@H](NC(=O)[C@H](C)NC(=O)[C@@H](CCC(N)=O)NC(=O)[C@H](CCC(=O)O)NC(=O)[C@H](CCC(=O)O)NC(=O)[C@H](CC(C)C)NC(=O)[C@H](Cc1ccc(O)cc1)NC(=O)[C@H](CO)NC(=O)[C@H](CO)NC(=O)[C@@H](NC(=O)[C@@H](N)CC(=O)O)C(C)C)C(C)C)[C@@H](C)CC)C(C)C)C(N)=O` [compound 86] (H-DVSSYLEE[dQ]AVREFIAWLVKGGPSSGAPPPSK(Palmitoyl)-NH2): in data set [1] (Table 5, d-AA variants of 9-40am Jant4 K40[C16], read-out: Bioactivity KC50), the IC50 worked out at 41 nM. In data set [2] (setting [5]), this molecule came in with a solubility of 2200 µg/mL (≈ 604 µM).

For `CCCCCCCCCCCCCCCC(=O)N[C@@H](CCC(=O)NCCCC[C@H](NC(=O)[C@H](CO)NC(=O)[C@@H]1CCCN1C(=O)[C@@H]1CCCN1C(=O)[C@@H]1CCCN1C(=O)[C@H](C)NC(=O)CNC(=O)[C@H](CO)NC(=O)[C@H](CO)NC(=O)[C@@H]1CCCN1C(=O)CNC(=O)CNC(=O)[C@H](CCCCN)NC(=O)[C@@H](NC(=O)[C@H](CC(C)C)NC(=O)[C@H](Cc1c[nH]c2ccccc12)NC(=O)[C@H](C)NC(=O)[C@@H](NC(=O)[C@H](Cc1ccccc1)NC(=O)[C@H](CCC(=O)O)NC(=O)[C@H](CCCNC(=N)N)NC(=O)[C@@H](NC(=O)[C@H](C)NC(=O)[C@H](CCC(N)=O)NC(=O)[C@H](CCC(=O)O)NC(=O)[C@H](CCC(=O)O)NC(=O)[C@H](CC(C)C)NC(=O)[C@H](Cc1ccc(O)cc1)NC(=O)[C@H](CO)NC(=O)[C@H](CO)NC(=O)[C@@H](NC(=O)[C@@H](N)CC(=O)O)C(C)C)C(C)C)[C@@H](C)CC)C(C)C)C(N)=O)C(=O)O` [compound 52] (H-DVSSYLEEQAVREFIAWLVKGGPSSGAPPPSK([γGlu-Palmitoyl])-NH2; N-terminus assumed), the IC50 in data set [1] (setting [3]) worked out at 12 nM. This molecule yielded a solubility in data set [2] (setting [4]) of over 20000 µg/mL.

In the case of `CC[C@H](C)[C@H](NC(=O)[C@H](Cc1ccccc1)NC(=O)[C@H](CCC(=O)O)NC(=O)[C@H](CCCNC(=N)N)NC(=O)[C@@H](NC(=O)[C@H](C)NC(=O)[C@H](CCC(N)=O)NC(=O)[C@H](CCC(=O)O)NC(=O)[C@H](CCC(=O)O)NC(=O)[C@H](CC(C)C)NC(=O)[C@H](Cc1ccc(O)cc1)NC(=O)[C@H](CO)NC(=O)[C@H](CO)NC(=O)[C@@H](NC(=O)[C@@H](N)CC(=O)O)C(C)C)C(C)C)C(=O)N[C@@H](C)C(=O)N[C@@H](Cc1c[nH]c2ccccc12)C(=O)N[C@@H](CC(C)C)C(=O)N[C@H](C(=O)N[C@@H](CCCCN)C(=O)NCC(=O)NCC(=O)N1CCC[C@H]1C(=O)N[C@@H](CO)C(=O)N[C@@H](CO)C(=O)NCC(=O)N[C@@H](C)C(=O)N1CCC[C@H]1C(=O)N1CCC[C@H]1C(=O)N1CCC[C@H]1C(=O)N[C@@H](CO)C(=O)N[C@@H](CCCCNC(=O)COCCOCCNC(=O)COCCOCCNC(=O)CC[C@H](NC(=O)CCCCCCCCCCCCCCCCC(=O)O)C(=O)O)C(N)=O)C(C)C` [compound 67] (H-DVSSYLEEQAVREFIAWLVKGGPSSGAPPPSK([AEEA-AEEA-γGlu-C18 diacid])-NH2), in data set [1] (setting [3]), the IC50 is 579 nM. In addition, in data set [2] (setting [4]), the solubility is over 25000 µg/mL.

By solubility is commonly meant how much of the substance goes into solution per volume.
